Assay results published in article PMC5464773 (eLife, 2017).
Like-named read-outs stand apart in the source and are kept apart here.

Key:
[1] = system: BCR-ABL-expressing B-lineage acute lymphoblastic leukemia cells dependent on Bcl-2; experiment: BH3 profiling, mitochondrial depolarization (JC-1) in permeabilized cells; assay type: cell-based; conditions: BH3 profiling fits Bcl-2, sigmoidal dose-response (variable slope); for Bottom (best-fit value): constrained (Bottom < 5 or 0 < Bottom < 5); for Top (best-fit value): constrained (Top > 78 or Top < 100); for LogEC50 (best-fit value): x = Log [Peptide] M, fits ambiguous or hit constraint
Procedure: We tested our designed peptides for Bfl-1 selective targeting by carrying out BH3 profiling of cells with known dependencies on anti-apoptotic proteins. In this assay, peptides are titrated into permeabilized cells, and mitochondrial depolarization is measured using the voltage-sensitive dye JC-1 (Figure 7A) ([Deng et al., 2007]). We tested the apoptotic sensitivity of BCR-ABL-expressing B-lineage acute lymphoblastic leukemia cell lines engineered to depend on Bcl-2, Bcl-xL, Mcl-1 or Bfl-1 overexpression for survival ([Koss et al., 2016]). […] EC50 values for inducing mitochondrial permeabilization in the engineered cell lines agreed well with trends in Bfl-1-binding affinities, as expected based on the mechanism of action (Figure 7C).
(§1) The creation and characterization of the BCR-ABL-expressing B-lineage acute lymphoblastic leukemia suspension cell lines with engineered dependencies on human versions of anti-apoptotic genes is detailed in [Koss et al. (2016)]). Cells were grown in RPMI (Life Technologies, Carlsbad, CA) with 10% fetal bovine serum, 2 mM L-glutamine, 10 mL/L 100x Pen/Strep (Life Technologies # 15140122), 25 mM HEPES and 10 mL/L 100x NEAA (Life Technologies, 11140050). The adherent cell lines PC-3 (RRID: CVCL_0035) and SF295 (RRID: CVCL_1690) are from the NCI60 panel ([Lorenzi et al., 2009]) and were grown in RPMI (Life Technologies) with 10% fetal bovine serum, 2 mM L-glutamine and 10 mL/L 100x Pen/Strep (Life Technologies # 15140122 ). Cell line identities were confirmed by STR profiling. The Lookout Mycoplasma PCR detection kit (Sigma) was used to detect mycoplasma infection. Mycoplasma was only detected in the PC-3 cell line, and internal controls were used to account for this phenotype.
Peptides were titrated by serial dilution in MEB buffer (150 mM Mannitol, 10 mM HEPES-KOH pH 7.5, 50 mM KCl, 0.02 mM EGTA, 0.02 mM EDTA, 0.1% BSA and 5 mM Succinate) containing 20 μg/mL oligomycin, 50 μg/mL digitonin, 2 μM JC-1 and 10 mM 2-mercaptoethanol in 384-well plates. Controls for no depolarization (1% DMSO) and complete depolarization with the mitochondrial oxidative phosphorylation uncoupler FCCP (20 μM) were included for data normalization. Cells were suspended at 1.67 × 10^6 cells/mL in MEB. 15 μL of cell suspension was added to each well containing 15 μL of treatment solution. Fluorescence emission was measured every 5 min for 3 hr at […] with 525 nm excitation on a Tecan Safire2. To produce percent depolarization, the area under the resultant curve was calculated and normalized to the assay controls. Peptide titration curves were fit to sigmoidal dose-response curves using Graphpad PRISM seven to obtain EC50 values.

Bcl-2 = target: T1, Bcl-2 (Homo sapiens, UniProt P10415); experiment: Competition fluorescence polarization (anisotropy) with fluoresceinated BIM; assay type: binding
T1 construct: c-myc
T1 sequence (P10415 whole entry): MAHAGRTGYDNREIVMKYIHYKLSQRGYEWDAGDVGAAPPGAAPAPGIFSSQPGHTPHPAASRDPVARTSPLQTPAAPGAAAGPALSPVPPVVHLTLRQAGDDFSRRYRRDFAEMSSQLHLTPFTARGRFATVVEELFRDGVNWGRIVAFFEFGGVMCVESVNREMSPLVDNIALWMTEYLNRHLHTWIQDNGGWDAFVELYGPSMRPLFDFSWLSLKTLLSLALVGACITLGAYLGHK
Procedure: Plates were mixed at 23°C for 3 hr. Plates were read again at 24 to check equilibration. Experiments were done in at least triplicate.

[2] = system: BCR-ABL-expressing B-lineage acute lymphoblastic leukemia cells dependent on Bfl-1; conditions: for HillSlope (best-fit value) / Bottom (best-fit value) / Top (best-fit value) / LogEC50 (best-fit value): iBH3 fits Bfl-1, sigmoidal dose-response (variable slope); for Bottom (best-fit value) / Top (best-fit value): fit of 3 replicates; for cytochrome c release pattern in iBH3: low concentrations, highly primed cells of known anti-apoptotic protein dependency; for LogEC50 (best-fit value): log of EC50, x axis Log [Peptide M]
Procedure: (§2) As an additional test for on-pathway activity, we measured cytochrome c release in the same engineered cell lines in response to peptide treatment, using iBH3 profiling ([Ryan et al., 2016]).
as §1, with “infection.” for “infection. Mycoplasma was only detected in the PC-3 cell line, and internal controls were used to account for this phenotype.”
(§3) Cells were suspended in MEB buffer (150 mM mannitol, 50 mM KCl, 10 mM HEPES, 5 mM succinic acid, 20 μM EGTA, 20 μM EDTA, 0.1% BSA, final pH 7.4) at 0.5*10^6 cells/mL (adherent lines) or 2 *10^6 cells/mL (suspension lines). Cell suspension was added to a 384 non-binding well plate (10 μL/well) containing peptides at 2X final concentration in MEB with 20 μg/mL digitonin. Plates were incubated at 25°C for 1 hr. To terminate exposure, 10 μL of 4% formaldehyde in PBS was added to each well, plates were incubated for 10 min before addition of 10 μL N2 buffer (1.7M Tris, 1.25M glycine, pH 9.1) for 5 min. 10 μL of staining buffer (2% Tween20, 10% BSA, PBS) containing 10 μg/mL Hoechst 33342 and 1.25 μg/mL anti-cytochrome c Alexa647 conjugate (BioLegend clone 6H2.B4) was added to each well before sealing the plate and shaking overnight. The median fluorescence of the cytochrome c channel of Hoechst positive singlets was recorded by an IntelliCyt iQue Screener Plus. Cytochrome c release was determined by normalizing the median fluorescence intensity (MFI) data to positive control wells (Alamethicin) and negative control wells (DMSO) as follows: Cytochromecrelease=1−(MFIsample−MFIAlamethicin)/(MFIDMSO−MFIAlamethicin)

[3] = system: BCR-ABL-expressing B-lineage acute lymphoblastic leukemia cells dependent on Mcl-1; conditions: iBH3 fits Mcl-1, sigmoidal dose-response (variable slope); for Bottom (best-fit value) / Top (best-fit value): fit of 3 replicates; for LogEC50 (best-fit value): log of EC50, x axis Log [Peptide M]
Procedure: as §2
as §1, with “infection.” for “infection. Mycoplasma was only detected in the PC-3 cell line, and internal controls were used to account for this phenotype.”
as §3

[4] = competition FP source data, mean of three replicates, values above 5 μM are reported as > 5 μM in the figures, read-out: mean Ki (M) Bcl-2
[5] = competition FP source data, replicate 1
[6] = competition FP source data, replicate 2
[7] = competition FP source data, replicate 3

Row | Substance | HillSlope (best-fit value) [1] | Bottom (best-fit value) [1] | Top (best-fit value) [1] | LogEC50 (best-fit value) [1] | Ki (Bcl-2; [4]) [M] | Ki (M) Bcl-2 (Bcl-2; [5]) [M] | Ki (M) Bcl-2 (Bcl-2; [6]) [M] | Ki (M) Bcl-2 (Bcl-2; [7]) [M] | HillSlope (best-fit value) [2] | Bottom (best-fit value) [2] | Top (best-fit value) [2] | cytochrome c release pattern in iBH3 [2] | HillSlope (best-fit value) [3] | Bottom (best-fit value) [3] | Top (best-fit value) [3] | Ki (Bcl-2; competition FP, 50 nM c-myc-tagged receptor + 25 nM fluoresceinated BIM, Tris pH 7.8, 23°C, 3 hr, mean ± SD of three replicates, read-out: Ki (nM) Bcl-2) [M] | LogEC50 (best-fit value) [2] | LogEC50 (best-fit value) [3]
1 | Ac-QWIREIAAGLRRFADILNAQVER-NH2 [FS3] | 1.964 | ~ 5 | ~ 100 | -5.077 | 2.06e-06 | 1.85e-06 | 2.41e-06 | 1.93e-06 | 0.832 | ~ -46.09 | 0.9862 | selectively induced cytochrome c release only in Bfl-1 dependent cell lines | 4.529 | 0.1359 | 0.9781 |  |  | 
2 | Ac-QWVREIAAGLRLAADNVNAQLER-NH2 [FS1] | 0.3224 | ~ 5 | ~ 78 | ~ -2.821 | 5.31e-06 | 8.37e-06 | 4.66e-06 | 2.9e-06 | 2.245 | 0.8808 | 0.9982 | selectively induced cytochrome c release only in Bfl-1 dependent cell lines | 1.721 | 0.09874 | 0.9023 | > 5e-06 | -6.521 | -4.595
3 | Ac-QWVREIAAGLRRAADDVNAQVER-NH2 [FS2] | 1.067 | ~ 5 | ~ 100 | -4.482 | 2.41e-06 | 2.55e-06 | 2.86e-06 | 1.82e-06 | 0.6008 | ~ -2.146 | 1.01 | selectively induced cytochrome c release only in Bfl-1 dependent cell lines | 1.725 | 0.1056 | 1.316 |  | ~ -9.301 | -4.058
